Results on 3 compounds are retold here after PubChem BioAssay (NCI).

Among the test systems are CCRF-CEM leukemia; IGROV1 ovarian; MDA-MB-231 breast; NCI-H226 lung; NCI-H23 lung; OVCAR-8 ovarian; SF-539 CNS; SN12C renal; SW-620 colon; UACC-62 melanoma.
Holding throughout (test): growth of human tumour cells (NCI), 48 h

Molecules are shown by their SMILES. Where “and” joins values, the source holds several entries; their conditions need not be identical. Identical values can stand only once.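 Growth conditions: 96-well plates. Treatment: test compound, 48 hours, 5 concentrations. Analysis: linear interpolation between bracketing concentrations; unreached endpoints set to highest concentration. Here, GI50 denotes the concentration required for 50% inhibition of growth. TGI: total growth inhibition.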

Regarding `CCOC(=O)Cc1csc(NC(=O)COC(=O)c2ccc(OC)cc2)n1`, the GI50 is 11100 nM with CCRF-CEM leukemia; 2990 nM in the assay on IGROV1 ovarian; over 78300 nM in the assay with MDA-MB-231 breast; over 100000 nM with NCI-H226 lung; 29800 nM in the assay with NCI-H23 lung; 47500 nM in the assay with OVCAR-8 ovarian. Further, the GI50 with SF-539 CNS was 19300 nM; in the assay with SN12C renal, over 100000 nM; with SW-620 colon, over 96100 nM; in the assay with UACC-62 melanoma it was over 100000 nM. The TGI is 31500 nM in the assay on CCRF-CEM leukemia; 8770 nM in the assay on IGROV1 ovarian; over 100000 nM in the assay on MDA-MB-231 breast; over 100000 nM with NCI-H226 lung; over 100000 nM in the assay with NCI-H23 lung; over 73200 nM in the assay on OVCAR-8 ovarian. Besides, the TGI in the assay on SF-539 CNS was 37700 nM; with SN12C renal, over 100000 nM; with SW-620 colon it was over 100000 nM; in the assay with UACC-62 melanoma, over 100000 nM.
Take `CCCCCc1c(C)[nH]c(/C=C2\N=C(c3ccc[nH]3)C=C2OCc2ccccc2)c1C`: the GI50 in the assay on CCRF-CEM leukemia is 26.1 nM and 16.2 nM; in the assay with IGROV1 ovarian, 161 nM and 59.6 nM; with MDA-MB-231 breast, 24.4 nM; in the assay on NCI-H226 lung it was 74.8 nM and 201 nM; in the assay with NCI-H23 lung, 116 nM and 56.3 nM; in the assay on OVCAR-8 ovarian, 48.9 nM and 39 nM. Moreover, the GI50 was 66.8 nM and 49.2 nM in the assay on SF-539 CNS; 70.3 nM and 45.8 nM in the assay on SN12C renal; 36.9 nM and 29.5 nM in the assay with SW-620 colon; 23 nM in the assay on UACC-62 melanoma. For the same compound, the TGI was 1790 nM and 1400 nM in the assay on IGROV1 ovarian; 257 nM and 76.8 nM in the assay on MDA-MB-231 breast; 1650 nM and 2030 nM with NCI-H226 lung; 2230 nM and 627 nM with NCI-H23 lung; 1230 nM and 172 nM with OVCAR-8 ovarian; 1080 nM and 263 nM with SF-539 CNS. The TGI is 1430 nM and 268 nM with SN12C renal; 1210 nM and 322 nM in the assay with SW-620 colon; 53.8 nM and 50.6 nM with UACC-62 melanoma.
As to `Cc1c(C(=O)O[C@H]2[C@@H]3[C@H](C)CC[C@H]3[C@]3(C)O[C@@]2(C2CCCCC2)C[C@H]3OC(=O)CO)ccc2ccccc12`, the GI50 in the assay with CCRF-CEM leukemia was 9130 nM; in the assay on IGROV1 ovarian it was 8390 nM; with MDA-MB-231 breast it was 8000 nM; in the assay on NCI-H226 lung, 7670 nM; in the assay with NCI-H23 lung, 8290 nM; with OVCAR-8 ovarian, 6640 nM. Further, the GI50 in the assay with SF-539 CNS is 7650 nM; with SN12C renal, 157 nM; in the assay with SW-620 colon, 8010 nM; with UACC-62 melanoma, 7970 nM. In addition, the TGI worked out at 20900 nM in the assay on CCRF-CEM leukemia; 17300 nM in the assay with IGROV1 ovarian; 16700 nM in the assay on MDA-MB-231 breast; 15100 nM in the assay with NCI-H226 lung; 17700 nM in the assay with NCI-H23 lung; 13800 nM with OVCAR-8 ovarian. For the same compound, the TGI was 14900 nM with SF-539 CNS, 8360 nM with SN12C renal, 16300 nM in the assay with SW-620 colon and 15100 nM with UACC-62 melanoma.
